Laboratory results published in PMC11286144 (Archives of biochemistry and biophysics, 2024).
Values joined by “and” are separate entries in the source; they are usually repeats but may differ in a detail not shown here. Equal entries are not always repeated.

Columns and labels:
Experiment in all cases: BFC debenzylase activity assay
K257A CYP3A4 = K257A CYP3A4 (Homo sapiens, UniProt P08684, K257A)
K266A CYP3A4 = K266A CYP3A4 (Homo sapiens, UniProt P08684, K266A)
CYP3A4 (WT) = CYP3A4 (WT) (Homo sapiens, UniProt P08684)
Sequence of CYP3A4 (WT) (P08684 whole entry): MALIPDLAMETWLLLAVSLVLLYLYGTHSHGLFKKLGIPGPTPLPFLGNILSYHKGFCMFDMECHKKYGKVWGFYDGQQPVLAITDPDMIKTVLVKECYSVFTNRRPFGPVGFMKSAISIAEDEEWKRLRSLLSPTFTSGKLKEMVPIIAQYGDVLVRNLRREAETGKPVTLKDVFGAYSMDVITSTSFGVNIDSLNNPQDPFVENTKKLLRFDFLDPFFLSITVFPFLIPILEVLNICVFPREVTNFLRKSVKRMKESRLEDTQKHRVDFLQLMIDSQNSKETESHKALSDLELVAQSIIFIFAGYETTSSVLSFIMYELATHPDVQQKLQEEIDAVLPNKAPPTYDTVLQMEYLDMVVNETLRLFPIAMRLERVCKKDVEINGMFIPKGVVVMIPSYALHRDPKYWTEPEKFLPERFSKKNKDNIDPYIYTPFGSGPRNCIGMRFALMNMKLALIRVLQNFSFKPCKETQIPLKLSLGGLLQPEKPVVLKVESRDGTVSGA

Sequence of K266A CYP3A4 (P08684 whole entry K266A): as the sequence (P08684 whole entry) above, with K266A counted along it
Sequence of K257A CYP3A4 (P08684 whole entry K257A): as the sequence (P08684 whole entry) above, with K257A counted along it

## O=c1cc(C(F)(F)F)c2ccc(OCc3ccccc3)cc2o1 [BFC]
K257A CYP3A4; K257A CYP3A4
  nH (Hill coefficient): 1.0
K257A CYP3A4; K257A CYP3A4 vs WT
  higher Vmax than wild type: 28%
K266A CYP3A4; K266A CYP3A4
  nH (Hill coefficient): 1.9 and 1.9 ± 0.1
K266A CYP3A4; K266A CYP3A4 vs WT
  higher Vmax than wild type: 44%
CYP3A4 (WT)
  nH (Hill coefficient): 1.8 and 1.8 ± 0.1
